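Protocol summary: plate cells (96-well), add compound at 5 concentrations, incubate 48 h, interpolate endpoints linearly. TGI marks complete inhibition of growth.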
Legend:
Experiment in all cases: growth of human tumour cells (NCI), 48 h
[1] = tested on: 786-0 renal
[2] = tested on: A498 renal
[3] = tested on: A549 NSCLC
[4] = tested on: ACHN renal
[5] = tested on: CAKI-1 renal
[6] = tested on: CCRF-CEM leukemia
[7] = tested on: COLO 205 colon
[8] = tested on: DU-145 prostate
[9] = tested on: EKVX NSCLC
[10] = tested on: HCC-2998 colon
[11] = tested on: HCT-116 colon
[12] = tested on: HCT-15 colon
[13] = tested on: HL-60(TB) leukemia
[14] = tested on: HOP-62 NSCLC
[15] = tested on: HOP-92 NSCLC
[16] = tested on: HS 578T breast
[17] = tested on: HT29 colon
[18] = tested on: K-562 leukemia
[19] = tested on: KM12 colon
[20] = tested on: LOX IMVI melanoma
[21] = tested on: M14 melanoma
[22] = tested on: MALME-3M melanoma
[23] = tested on: MCF7 breast
[24] = tested on: MDA-MB-231 breast
[25] = tested on: MDA-MB-435
[26] = tested on: MDA-N
[27] = tested on: MOLT-4 leukemia
[28] = tested on: NCI-H226 lung
[29] = tested on: NCI-H23 lung
[30] = tested on: NCI-H460 lung
[31] = tested on: NCI/ADR-RES ovarian
[32] = tested on: OVCAR-3 ovarian
[33] = tested on: OVCAR-4 ovarian
[34] = tested on: OVCAR-5 ovarian
[35] = tested on: OVCAR-8 ovarian
[36] = tested on: PC-3 prostate
[37] = tested on: RPMI-8226 leukemia
[38] = tested on: RXF 393 renal
[39] = tested on: SF-268 CNS
[40] = tested on: SF-295 CNS
[41] = tested on: SF-539 CNS
[42] = tested on: SK-MEL-2 melanoma
[43] = tested on: SK-MEL-28 melanoma
[44] = tested on: SK-MEL-5 melanoma
[45] = tested on: SK-OV-3 ovarian
[46] = tested on: SN12C renal
[47] = tested on: SNB-19 CNS
[48] = tested on: SNB-75 CNS
[49] = tested on: SR leukemia
[50] = tested on: SW-620 colon
[51] = tested on: T-47D breast
[52] = tested on: TK-10 renal
[53] = tested on: U251 CNS
[54] = tested on: UACC-257 melanoma
[55] = tested on: UACC-62 melanoma
[56] = tested on: UO-31 renal
[57] = tested on: IGROV1 ovarian
[58] = tested on: NCI-H522 lung

With COc1cc(C=O)cc(/C=N/c2ccccn2)c1O the TGI [1] was > 100 µM, the TGI [2] was 31.3 µM and the TGI [3] was > 100 µM. The TGI [4] was 6.97 µM, the TGI [5] was 9.76 µM and the TGI [6] was > 100 µM. For the same compound, the TGI [7] was 29.5 µM, the TGI [8] was > 100 µM and the TGI [9] was > 100 µM. The TGI [10] was > 100 µM, the TGI [11] was > 100 µM and the TGI [12] was > 100 µM. For the same compound, the TGI [13] was 83.3 µM, the TGI [14] was 80 µM and the TGI [15] was 8.55 µM. For the same compound, the TGI [16] was 70.6 µM, the TGI [17] was 55 µM and the TGI [18] was > 100 µM. The TGI [19] was > 100 µM, the TGI [20] was 30.9 µM and the TGI [21] was 62.2 µM. The TGI [22] was 14.9 µM, the TGI [23] was > 100 µM and the TGI [24] was > 100 µM. For the same compound, the TGI [25] was 41.4 µM, the TGI [26] was 35.6 µM and the TGI [27] was 88.7 µM. The TGI [28] was 38.4 µM, the TGI [29] was > 100 µM and the TGI [30] was 42.7 µM. For the same compound, the TGI [31] was > 100 µM, the TGI [32] was 59.1 µM and the TGI [33] was > 100 µM. For the same compound, the TGI [34] was > 100 µM, the TGI [35] was 12 µM and the TGI [36] was 25.6 µM. The TGI [37] was 51.9 µM, the TGI [38] was 4.97 µM and the TGI [39] was 19 µM. The TGI [40] was > 100 µM, the TGI [41] was 8.84 µM and the TGI [42] was 10.5 µM. The TGI [43] was 21.9 µM, the TGI [44] was 11.4 µM and the TGI [45] was 78 µM. The TGI [46] was 88.8 µM, the TGI [47] was > 100 µM and the TGI [48] was 16.3 µM. For the same compound, the TGI [49] was 34.5 µM, the TGI [50] was > 100 µM and the TGI [51] was > 100 µM. The TGI [52] was > 100 µM, the TGI [53] was 55.2 µM and the TGI [54] was 55.3 µM. For the same compound, the TGI [55] was > 100 µM and the TGI [56] was 14.1 µM.

With CCCC1C(CC)C(NC)C(C#N)(C#N)C1(C#N)C#N (configuration not stated) the TGI [1] was 34.3 µM, the TGI [2] was 31.9 µM and the TGI [3] was > 100 µM. For the same compound, the TGI [4] was 43.1 µM, the TGI [5] was 25.9 µM and the TGI [6] was > 100 µM. The TGI [7] was 26.6 µM, the TGI [8] was 27.2 µM and the TGI [9] was 87.6 µM. It also gave a TGI [10] of 32.9 µM, a TGI [11] of 30.1 µM and a TGI [12] of 28.7 µM. For the same compound, the TGI [13] was 91.8 µM, the TGI [14] was 29.2 µM and the TGI [15] was 32.2 µM. For the same compound, the TGI [16] was > 100 µM, the TGI [17] was 27.6 µM and the TGI [57] was 33.4 µM. The TGI [18] was > 100 µM, the TGI [19] was 30.9 µM and the TGI [20] was 36.1 µM. The TGI [21] was > 100 µM, the TGI [22] was 63.8 µM and the TGI [23] was > 100 µM. The TGI [24] was 30.1 µM, the TGI [25] was > 100 µM and the TGI [26] was 36.1 µM. For the same compound, the TGI [27] was 76.9 µM, the TGI [28] was 35.4 µM and the TGI [29] was 46.8 µM. The TGI [58] was 33.3 µM, the TGI [31] was 59 µM and the TGI [33] was > 100 µM. For the same compound, the TGI [34] was > 100 µM, the TGI [35] was 58.9 µM and the TGI [36] was 39.9 µM. It also gave a TGI [37] of 43.8 µM, a TGI [38] of 28 µM and a TGI [39] of 34.3 µM. For the same compound, the TGI [40] was 41.9 µM, the TGI [41] was 34.8 µM and the TGI [42] was 35.7 µM. For the same compound, the TGI [43] was 94.3 µM, the TGI [44] was 24.5 µM and the TGI [45] was > 100 µM. It also gave a TGI [46] of 34.5 µM, a TGI [47] of 48.5 µM and a TGI [48] of 22.5 µM. The TGI [49] was 82.3 µM, the TGI [50] was > 100 µM and the TGI [51] was 29 µM. The TGI [52] was 34.6 µM, the TGI [53] was 95.1 µM and the TGI [54] was 33.3 µM. It also gave a TGI [55] of 39.2 µM and a TGI [56] of 30 µM.
